Assay results reported in US8968758B2, “Material for forming a multi-level antimicrobial surface coating and its preparation” (The Hong Kong University of Science and Technology …, priority 2008, dated 2015).

Legend:
[1] = system: Gram positive and Gram negative bacteria; experiment: Contact-killing on surface coated with composition B at various contact times; format: cell-based, B. subtilis, S. aureus, E. coli; settings: 10 min contact, without encapsulation
Description: A hundred microliters of 10^7.cm^−3 bacteria cell suspension was placed in contact with the coated surface at ambient condition (23±2° C., 70% R.H.) in a sterilized biological safety cabinet (NuAire, Nu-425-400E). Three sets of runs of five samples each were carried out at the fixed contact times of 1, 5, 10 and 30 min. The samples were immersed into a primary subculture tube containing 20 ml neutralizer for 30 min to stabilize the surviving bacteria cells. The sterile neutralizer solution was freshly prepared by adding 1% (v/v) 0.1 M Na2S2O3 to 600 ml of 0.85% (w/v) normal saline (NaCl, RDH) solution containing 0.1% (v/v) (final concentration) of polyoxyethylenesorbitan monooleate (Tween 80) followed by autoclave at 121° C. for 20 min. A hundred microliters aliquots from the neutralizer were cultured on a TSA plate. The numbers of viable bacteria were counted after incubating the plates for 24 h at 37±0.1° C. The sample was drip-dried and transferred to a second subculture tube containing 20 ml of sterile nutrient broth (Nutrient broth no. 2, Oxoid) for 10 min. A hundred microliters aliquots from the nutrient broth were cultured on a TSA plate. The numbers of viable bacteria were counted after incubating the plates for 24 h at 37±0.1° C.

S. aureus = experiment: Kirby-Bauer disk diffusion test; format: cell-based; settings: wafer coated and dried
Description: Standard Kirby-Bauer disk diffusion test was performed using S. aureus. Sterile TSA plates were evenly inoculated with a loopful (ca. 100 μl) of S. aureus inoculum from the broth culture (ca. 10^6.cm^−3). […] A filter paper coated with 100 μl of 70% ethanol without drying was used as positive control
The Kirby-Bauer disk diffusion test was conducted, a standard antimicrobial test method using impregnated wafers to test whether particular bacteria are susceptible by comparing the area of clearing that surrounds the wafer where bacteria are not capable of growing (called a zone of inhibition).

Compound | antimicrobial effect (in words) [1] | zone of inhibition (S. aureus)
[O][Cl+][O-] [chlorine dioxide] | ineffective | 
ethanol [70% alcohol] |  | do not show zones of inhibition
